We go through two compounds from EP4467141A1, “PYRAZOLO-QUINOLINES AS SELECTIVE INHIBITORS OF GENOTOXIC STRESS-INDUCED IKK/NF- KB PATHWAYS FOR CANCER THERAPY” (Max-Delbrück-Centrum für Molekulare Medizin in der …, priority 2023, dated 2024).

Common to all, as to test: Kinase panel study
Common to all, as to type: biochemical
Settings in all cases: read-out: Percentage of inhibition; for inhibition at 1 µM: 1000nM; for inhibition at 10 µM: 10000nM

In one assay the target is T1, KIT V559D (Homo sapiens, UniProt P10721, V559D).
T1 construct: purchased Thermo Fisher Scientific
A digest of the protocol: (§1)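 In vitro, kinase panel; ZLyte or Adapta SOP; single-concentration testing (1 or 10 µM); output = % inhibition, plus IC50 in panel.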

The target in the next assay is T2, CSNK2A2 (CK2 alpha 2) (Homo sapiens, UniProt P19784).
T2 construct: purchased Thermo Fisher Scientific
A digest of the protocol:
as §1

The target of another assay is T3, SRC (Homo sapiens, UniProt P12931).
T3 construct: purchased Thermo Fisher Scientific
A digest of the protocol: as §1

The target in another assay is T4, CDK9/cyclin T1 (Homo sapiens, UniProt P50750).
T4 construct: purchased Thermo Fisher Scientific
A digest of the protocol: as §1

A further assay deals with T5, AMPK (A2/B2/G3) (Homo sapiens, UniProt P54646).
T5 construct: purchased Thermo Fisher Scientific
A digest of the protocol: as §1

For another assay, the target named is T6, STK4 (MST1) (Homo sapiens, UniProt Q13043).
T6 construct: purchased Thermo Fisher Scientific
T6 sequence (Q13043 1-487): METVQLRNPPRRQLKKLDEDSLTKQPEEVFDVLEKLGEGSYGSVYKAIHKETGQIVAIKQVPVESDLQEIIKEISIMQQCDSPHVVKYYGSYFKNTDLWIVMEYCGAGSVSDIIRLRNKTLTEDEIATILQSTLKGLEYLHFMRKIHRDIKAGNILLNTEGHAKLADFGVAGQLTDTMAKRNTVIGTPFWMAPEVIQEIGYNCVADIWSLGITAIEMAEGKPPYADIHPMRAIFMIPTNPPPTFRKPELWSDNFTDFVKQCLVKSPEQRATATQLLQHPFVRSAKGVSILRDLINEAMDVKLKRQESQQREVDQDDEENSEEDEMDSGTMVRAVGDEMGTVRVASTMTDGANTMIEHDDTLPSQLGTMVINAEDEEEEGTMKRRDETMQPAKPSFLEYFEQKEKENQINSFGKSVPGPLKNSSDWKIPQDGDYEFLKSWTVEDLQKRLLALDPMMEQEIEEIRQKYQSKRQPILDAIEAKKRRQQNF
A digest of the protocol:
as §1

The target in the next assay is T7, GRK4 (Homo sapiens, UniProt P32298).
T7 construct: purchased Thermo Fisher Scientific
A digest of the protocol: as §1

A further assay addresses T8, CSK (Homo sapiens, UniProt P41240).
T8 construct: purchased Thermo Fisher Scientific
A digest of the protocol:
as §1

The next assay deals with T9, BMX (Homo sapiens, UniProt P51813).
T9 construct: purchased Thermo Fisher Scientific
T9 sequence (P51813 1-675): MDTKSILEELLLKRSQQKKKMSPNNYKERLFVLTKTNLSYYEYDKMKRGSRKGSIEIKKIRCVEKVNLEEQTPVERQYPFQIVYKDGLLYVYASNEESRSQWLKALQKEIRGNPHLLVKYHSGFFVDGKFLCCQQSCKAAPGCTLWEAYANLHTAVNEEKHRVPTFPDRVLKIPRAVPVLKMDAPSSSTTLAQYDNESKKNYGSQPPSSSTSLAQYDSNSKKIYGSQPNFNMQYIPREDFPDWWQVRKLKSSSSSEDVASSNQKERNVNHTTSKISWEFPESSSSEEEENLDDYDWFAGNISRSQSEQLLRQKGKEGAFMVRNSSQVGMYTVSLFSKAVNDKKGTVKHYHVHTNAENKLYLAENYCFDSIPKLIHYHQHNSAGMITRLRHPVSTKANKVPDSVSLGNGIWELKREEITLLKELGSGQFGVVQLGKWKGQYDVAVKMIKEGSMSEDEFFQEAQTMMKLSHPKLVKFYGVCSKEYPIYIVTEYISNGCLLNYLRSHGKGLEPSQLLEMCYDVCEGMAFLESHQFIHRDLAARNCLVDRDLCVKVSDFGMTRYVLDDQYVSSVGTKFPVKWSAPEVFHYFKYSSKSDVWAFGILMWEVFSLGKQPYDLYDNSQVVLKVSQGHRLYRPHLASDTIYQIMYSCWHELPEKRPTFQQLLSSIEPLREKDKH
A digest of the protocol: as §1

T5 sequence (P54646 whole entry): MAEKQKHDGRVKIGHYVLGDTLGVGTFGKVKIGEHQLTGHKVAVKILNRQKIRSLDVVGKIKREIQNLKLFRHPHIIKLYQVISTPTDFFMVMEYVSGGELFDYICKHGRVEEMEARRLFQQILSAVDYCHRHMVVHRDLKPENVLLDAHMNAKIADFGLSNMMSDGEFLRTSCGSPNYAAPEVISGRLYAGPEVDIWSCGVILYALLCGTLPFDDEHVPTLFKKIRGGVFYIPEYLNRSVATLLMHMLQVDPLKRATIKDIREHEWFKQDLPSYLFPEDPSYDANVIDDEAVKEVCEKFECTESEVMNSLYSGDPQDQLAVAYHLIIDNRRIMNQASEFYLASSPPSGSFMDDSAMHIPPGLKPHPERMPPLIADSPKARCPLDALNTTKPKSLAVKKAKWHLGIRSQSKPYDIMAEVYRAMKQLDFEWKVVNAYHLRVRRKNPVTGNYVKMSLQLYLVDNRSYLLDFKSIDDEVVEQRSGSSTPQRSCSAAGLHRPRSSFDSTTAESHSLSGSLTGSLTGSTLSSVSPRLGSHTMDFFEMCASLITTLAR
T5 sequence (O43741 whole entry partner): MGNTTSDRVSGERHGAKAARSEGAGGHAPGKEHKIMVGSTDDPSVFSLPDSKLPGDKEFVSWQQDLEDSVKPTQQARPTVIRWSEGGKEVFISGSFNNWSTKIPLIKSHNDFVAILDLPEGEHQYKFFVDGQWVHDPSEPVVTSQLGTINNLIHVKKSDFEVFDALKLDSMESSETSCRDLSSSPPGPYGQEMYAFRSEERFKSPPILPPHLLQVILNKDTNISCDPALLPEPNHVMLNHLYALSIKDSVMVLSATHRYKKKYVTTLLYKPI
T5 sequence (Q9UGI9 whole entry partner): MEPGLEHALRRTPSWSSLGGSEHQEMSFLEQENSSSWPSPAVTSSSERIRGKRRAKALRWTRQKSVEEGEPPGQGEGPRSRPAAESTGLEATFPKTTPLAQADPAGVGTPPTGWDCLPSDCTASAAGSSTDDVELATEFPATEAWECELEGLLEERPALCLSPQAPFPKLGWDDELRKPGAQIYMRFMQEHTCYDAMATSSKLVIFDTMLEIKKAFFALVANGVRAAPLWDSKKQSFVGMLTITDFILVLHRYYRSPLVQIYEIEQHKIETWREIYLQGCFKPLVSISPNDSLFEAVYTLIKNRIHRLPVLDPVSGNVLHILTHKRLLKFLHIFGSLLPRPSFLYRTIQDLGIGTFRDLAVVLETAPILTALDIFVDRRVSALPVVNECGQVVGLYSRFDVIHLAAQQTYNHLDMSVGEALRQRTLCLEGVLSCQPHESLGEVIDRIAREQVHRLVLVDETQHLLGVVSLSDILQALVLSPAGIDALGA
T3 sequence (P12931 whole entry): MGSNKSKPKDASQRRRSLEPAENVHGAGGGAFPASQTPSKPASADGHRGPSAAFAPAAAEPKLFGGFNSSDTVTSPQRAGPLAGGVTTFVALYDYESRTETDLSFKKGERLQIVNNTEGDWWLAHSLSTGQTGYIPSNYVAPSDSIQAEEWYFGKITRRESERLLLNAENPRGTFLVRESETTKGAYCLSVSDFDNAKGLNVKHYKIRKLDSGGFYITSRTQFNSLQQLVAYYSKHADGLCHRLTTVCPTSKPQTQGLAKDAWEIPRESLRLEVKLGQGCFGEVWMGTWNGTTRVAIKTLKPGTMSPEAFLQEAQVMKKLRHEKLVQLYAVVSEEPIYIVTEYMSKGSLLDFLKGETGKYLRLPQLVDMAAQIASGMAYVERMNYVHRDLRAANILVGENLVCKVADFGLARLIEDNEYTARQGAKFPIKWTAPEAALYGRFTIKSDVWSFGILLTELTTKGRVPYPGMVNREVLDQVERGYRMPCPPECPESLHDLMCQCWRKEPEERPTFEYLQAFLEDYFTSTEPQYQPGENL
T1 sequence (P10721 26-976 V559D): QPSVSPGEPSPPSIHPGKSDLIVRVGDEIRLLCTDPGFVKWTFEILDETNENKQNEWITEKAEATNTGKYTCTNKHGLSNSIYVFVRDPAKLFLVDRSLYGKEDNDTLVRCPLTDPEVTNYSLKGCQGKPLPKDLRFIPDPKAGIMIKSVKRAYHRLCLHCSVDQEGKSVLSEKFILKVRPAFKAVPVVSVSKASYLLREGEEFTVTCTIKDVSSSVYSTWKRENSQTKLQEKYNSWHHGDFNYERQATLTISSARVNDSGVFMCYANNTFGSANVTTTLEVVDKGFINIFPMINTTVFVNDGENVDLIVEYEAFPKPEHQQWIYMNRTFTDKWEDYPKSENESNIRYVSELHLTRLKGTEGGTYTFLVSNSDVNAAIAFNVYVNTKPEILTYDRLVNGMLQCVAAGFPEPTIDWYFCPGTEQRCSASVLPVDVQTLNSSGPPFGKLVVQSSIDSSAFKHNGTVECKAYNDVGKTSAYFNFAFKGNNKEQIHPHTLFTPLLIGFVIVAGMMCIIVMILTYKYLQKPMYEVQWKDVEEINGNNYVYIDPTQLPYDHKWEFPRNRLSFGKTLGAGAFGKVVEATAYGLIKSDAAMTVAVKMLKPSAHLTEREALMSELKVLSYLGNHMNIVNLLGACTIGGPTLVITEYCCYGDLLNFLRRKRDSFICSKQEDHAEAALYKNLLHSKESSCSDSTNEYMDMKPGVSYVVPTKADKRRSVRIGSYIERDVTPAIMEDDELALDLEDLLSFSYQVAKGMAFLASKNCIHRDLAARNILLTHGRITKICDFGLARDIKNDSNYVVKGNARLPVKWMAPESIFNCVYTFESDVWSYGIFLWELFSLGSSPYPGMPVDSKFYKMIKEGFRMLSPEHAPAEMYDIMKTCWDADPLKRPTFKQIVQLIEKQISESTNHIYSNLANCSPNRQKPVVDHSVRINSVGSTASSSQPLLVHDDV
T4 sequence (P50750 whole entry): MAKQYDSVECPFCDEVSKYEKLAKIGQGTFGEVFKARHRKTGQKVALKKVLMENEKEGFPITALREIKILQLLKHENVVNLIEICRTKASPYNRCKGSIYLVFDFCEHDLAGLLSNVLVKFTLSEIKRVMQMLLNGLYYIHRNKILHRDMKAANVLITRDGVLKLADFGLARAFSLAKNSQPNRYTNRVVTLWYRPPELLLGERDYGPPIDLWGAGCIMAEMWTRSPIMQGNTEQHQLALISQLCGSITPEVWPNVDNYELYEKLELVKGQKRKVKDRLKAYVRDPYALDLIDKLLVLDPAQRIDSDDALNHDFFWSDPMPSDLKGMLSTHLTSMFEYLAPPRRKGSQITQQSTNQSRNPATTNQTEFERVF
T4 sequence (O60563 whole entry partner): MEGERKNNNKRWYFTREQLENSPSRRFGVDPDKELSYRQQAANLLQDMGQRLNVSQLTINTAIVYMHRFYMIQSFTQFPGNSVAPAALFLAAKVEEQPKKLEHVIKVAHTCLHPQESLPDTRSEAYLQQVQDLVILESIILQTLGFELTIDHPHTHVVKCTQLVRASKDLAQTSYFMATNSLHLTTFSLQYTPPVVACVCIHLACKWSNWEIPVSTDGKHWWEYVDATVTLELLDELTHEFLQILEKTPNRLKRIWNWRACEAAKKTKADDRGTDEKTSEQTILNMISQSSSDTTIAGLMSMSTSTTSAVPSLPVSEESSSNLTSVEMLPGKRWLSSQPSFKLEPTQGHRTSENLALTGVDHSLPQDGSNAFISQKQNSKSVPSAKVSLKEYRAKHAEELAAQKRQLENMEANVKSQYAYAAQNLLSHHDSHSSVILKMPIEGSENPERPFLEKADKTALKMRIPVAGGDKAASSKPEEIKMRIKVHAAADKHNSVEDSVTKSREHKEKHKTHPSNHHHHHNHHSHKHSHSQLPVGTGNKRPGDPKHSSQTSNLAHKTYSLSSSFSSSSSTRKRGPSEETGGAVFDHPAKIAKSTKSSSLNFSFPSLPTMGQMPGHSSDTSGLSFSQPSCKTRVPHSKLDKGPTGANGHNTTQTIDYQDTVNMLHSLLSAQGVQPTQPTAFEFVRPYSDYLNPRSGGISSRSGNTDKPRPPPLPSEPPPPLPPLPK
T2 sequence (P19784 whole entry): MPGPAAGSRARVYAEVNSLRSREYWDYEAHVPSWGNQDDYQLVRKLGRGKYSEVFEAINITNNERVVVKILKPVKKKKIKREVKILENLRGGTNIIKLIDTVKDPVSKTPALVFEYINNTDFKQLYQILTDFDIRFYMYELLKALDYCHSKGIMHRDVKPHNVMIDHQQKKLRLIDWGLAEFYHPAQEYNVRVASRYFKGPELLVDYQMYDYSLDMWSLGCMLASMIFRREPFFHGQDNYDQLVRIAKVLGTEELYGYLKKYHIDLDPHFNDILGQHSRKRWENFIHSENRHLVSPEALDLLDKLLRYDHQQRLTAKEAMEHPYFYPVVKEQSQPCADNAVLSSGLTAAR
T7 sequence (P32298 whole entry): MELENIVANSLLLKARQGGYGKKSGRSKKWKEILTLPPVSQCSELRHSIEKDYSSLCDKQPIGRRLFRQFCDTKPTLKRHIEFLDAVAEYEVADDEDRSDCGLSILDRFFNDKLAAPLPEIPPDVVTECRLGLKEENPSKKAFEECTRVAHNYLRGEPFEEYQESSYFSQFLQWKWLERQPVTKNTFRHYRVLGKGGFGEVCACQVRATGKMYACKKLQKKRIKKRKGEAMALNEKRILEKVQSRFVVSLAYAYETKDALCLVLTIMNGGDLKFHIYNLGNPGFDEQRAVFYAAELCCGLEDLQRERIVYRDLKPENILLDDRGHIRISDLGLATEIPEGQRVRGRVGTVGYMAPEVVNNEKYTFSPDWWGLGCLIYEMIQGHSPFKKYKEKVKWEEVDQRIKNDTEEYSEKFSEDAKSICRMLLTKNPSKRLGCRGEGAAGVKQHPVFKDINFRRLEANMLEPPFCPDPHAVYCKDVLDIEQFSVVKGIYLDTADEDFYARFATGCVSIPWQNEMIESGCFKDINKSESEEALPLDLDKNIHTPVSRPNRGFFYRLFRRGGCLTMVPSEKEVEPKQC

Take `COc1ccc2c(c1OC)c(=O)n1c3ccc(O)cc3c3ccnc2c31` [MW01, 5-Hydroxy-10,11-dimethoxy-9H-benzo[c]indolo[3,2,1-ij][1,5]naphthyridin-9-one]: the inhibition at 1 µM on KIT V559D is 11%; at CSNK2A2 (CK2 alpha 2) it was 16%; at SRC, 0%; on CDK9/cyclin T1 it was 11%; on AMPK (A2/B2/G3), 8%; at STK4 (MST1), 4%. Also, the inhibition at 1 µM on GRK4 is 8%; on CSK it was 11%; at BMX, -8%. Further, the inhibition at 10 µM at KIT V559D came out at 25%; on CSNK2A2 (CK2 alpha 2), 29%; on SRC it was 16%; on CDK9/cyclin T1, 20%; at AMPK (A2/B2/G3) it was 18%; on STK4 (MST1) it was 11%. Also, the inhibition at 10 µM is 12% on GRK4, 18% on CSK and 6% at BMX.

With `COc1ccc2cc3c(N)nn(C(=O)c4cccc(N(C)C)c4)c3nc2c1` [MW05, (3-Amino-7-methoxypyrazolo[3,4-b]quinolin-1-yl)-[3-(dimethylamino)phenyl]methanone], the inhibition at 1 µM on KIT V559D turned out to be 13%; at CSNK2A2 (CK2 alpha 2), 7%; at SRC, 6%; on CDK9/cyclin T1, 19%; on AMPK (A2/B2/G3), 4%; at STK4 (MST1), 4%. The figures for the inhibition at 1 µM at GRK4, on CSK and on BMX were -1%, 9% and -10%, respectively. Besides, the inhibition at 10 µM is 15% at KIT V559D; 4% at CSNK2A2 (CK2 alpha 2); 3% at SRC; 57% on CDK9/cyclin T1; -4% on AMPK (A2/B2/G3); 3% at STK4 (MST1). Further, the inhibition at 10 µM is 2% on GRK4, 13% on CSK and 4% on BMX.
